Earlier results as cited in PubChem BioAssay AID1259409 (Chemical Carcinogenesis Research Information System (CCRIS), 2018).

System: rodent chemically induced tumor inhibition, incidence and multiplicity
Experiment: CCRIS tumor inhibitor studies
Conditions: Dose [Inhibitor]: 0

COc1cc(/C=C/C(=O)CC(=O)/C=C/c2ccc(O)c(OC)c2)ccc1O
tumour outcome (control, treated, inhibition, significance) (Carcinogen: AZOXYMETHANE, 25843-45-2, 4% COMMERCIAL GRADE CURCUMIN IN DIET FOR 35 WK BEGINNING 2 WK PRIOR TO CARCINOGEN TREATMENT (STUDY DURATION: 35 WK), Route [Inhibitor]: ORAL, Species: MOUSE, Strain/Sex: CF-1/FEMALE, Target Tissue: Type of Lesion: COLON: ADENOCARCINOMA, Dose [Carcinogen]: 10 MG/KG BW IN 100 µL NORMAL SALINE 1/WK FOR 6 WK, Promoter: NONE USED): 40%, 15%, 63%, not significant
tumour outcome (control, treated, inhibition, significance) (Carcinogen: AZOXYMETHANE, 25843-45-2, 4% COMMERCIAL GRADE CURCUMIN IN DIET FOR 35 WK BEGINNING 2 WK PRIOR TO CARCINOGEN TREATMENT (STUDY DURATION: 35 WK), Route [Inhibitor]: ORAL, Species: MOUSE, Strain/Sex: CF-1/FEMALE, Target Tissue: Type of Lesion: COLON: ADENOMA, Dose [Carcinogen]: 10 MG/KG BW IN 100 µL NORMAL SALINE 1/WK FOR 6 WK, Promoter: NONE USED): 93%, 56%, 40%, not significant
tumour outcome (control, treated, inhibition, significance) (Carcinogen: AZOXYMETHANE, 25843-45-2, 200O PPM IN DIET FOR 56 WK BEGINNING 2 WK PRIOR TO CARCINOGEN TREATMENT (STUDY DURATION: 56 WK), Route [Inhibitor]: ORAL, Species: RAT, Strain/Sex: F344/MALE, Target Tissue: Type of Lesion: COLON: ADENOCARCINOMA, Dose [Carcinogen]: 15 MG/KG BW 1/WK FOR 2 WK, Promoter: NONE USED): 81%, 47%, 42%, p<0.004
tumour outcome (control, treated, inhibition, significance) (Carcinogen: BENZO[A]PYRENE, 50-32-8, 0.5% COMMERCIAL GRADE CURCUMIN IN DIET FOR 7 WK BEGINNING 2 WK PRIOR TO CARCINOGEN TREATMENT (STUDY DURATION: 30 WK), Route [Inhibitor]: ORAL, Species: MOUSE, Strain/Sex: STRAIN-A/FEMALE, Target Tissue: Type of Lesion: FORESTOMACH: PAPILLOMA, Dose [Carcinogen]: 1.5 MG IN 100 µL CORN OIL 1/WK FOR 4 WK, Promoter: NONE USED): 97%, 87%, 10%, not significant
tumour outcome (control, treated, inhibition, significance) (Carcinogen: BENZO[A]PYRENE, 50-32-8, 0.5% COMMERCIAL GRADE CURCUMIN IN DIET FOR 7 WK BEGINNING 2 WK PRIOR TO CARCINOGEN TREATMENT (STUDY DURATION: 30 WK), Route [Inhibitor]: ORAL, Species: MOUSE, Strain/Sex: STRAIN-A/FEMALE, Target Tissue: Type of Lesion: FORESTOMACH: SQUAMOUS CELL CARCINOMA, Dose [Carcinogen]: 1.5 MG IN 100 µL CORN OIL 1/WK FOR 4 WK, Promoter: NONE USED): 41%, 23%, 44%, not significant
tumour outcome (control, treated, inhibition, significance) (Carcinogen: BENZO[A]PYRENE, 50-32-8, 0.5% COMMERCIAL GRADE CURCUMIN IN DIET FOR 23 WK BEGINNING 1 WK POST CARCINOGEN TREATMENT (STUDY DURATION: 30 WK), Route [Inhibitor]: ORAL, Species: MOUSE, Strain/Sex: STRAIN-A/FEMALE, Target Tissue: Type of Lesion: FORESTOMACH: PAPILLOMA, Dose [Carcinogen]: 1.5 MG IN 100 µL CORN OIL 1/WK FOR 4 WK, Promoter: NONE USED): 97%, 89%, 8%, not significant
tumour outcome (control, treated, inhibition, significance) (Carcinogen: BENZO[A]PYRENE, 50-32-8, 0.5% COMMERCIAL GRADE CURCUMIN IN DIET FOR 23 WK BEGINNING 1 WK POST CARCINOGEN TREATMENT (STUDY DURATION: 30 WK), Route [Inhibitor]: ORAL, Species: MOUSE, Strain/Sex: STRAIN-A/FEMALE, Target Tissue: Type of Lesion: FORESTOMACH: SQUAMOUS CELL CARCINOMA, Dose [Carcinogen]: 1.5 MG IN 100 µL CORN OIL 1/WK FOR 4 WK, Promoter: NONE USED): 41%, 30%, 27%, not significant
tumour outcome (control, treated, inhibition, significance) (Carcinogen: BENZO[A]PYRENE, 50-32-8, 2% COMMERCIAL GRADE CURCUMIN IN DIET FOR 7 WK BEGINNING 2 WK PRIOR TO CARCINOGEN TREATMENT (STUDY DURATION: 30 WK), Route [Inhibitor]: ORAL, Species: MOUSE, Strain/Sex: STRAIN-A/FEMALE, Target Tissue: Type of Lesion: FORESTOMACH: PAPILLOMA, Dose [Carcinogen]: 1.5 MG IN 100 µL CORN OIL 1/WK FOR 4 WK, Promoter: NONE USED): 97%, 83%, 14%, not significant
tumour outcome (control, treated, inhibition, significance) (Carcinogen: BENZO[A]PYRENE, 50-32-8, 2% COMMERCIAL GRADE CURCUMIN IN DIET FOR 7 WK BEGINNING 2 WK PRIOR TO CARCINOGEN TREATMENT (STUDY DURATION: 30 WK), Route [Inhibitor]: ORAL, Species: MOUSE, Strain/Sex: STRAIN-A/FEMALE, Target Tissue: Type of Lesion: FORESTOMACH: SQUAMOUS CELL CARCINOMA, Dose [Carcinogen]: 1.5 MG IN 100 µL CORN OIL 1/WK FOR 4 WK, Promoter: NONE USED): 41%, 10%, 76%, not significant
tumour outcome (control, treated, inhibition, significance) (Carcinogen: BENZO[A]PYRENE, 50-32-8, 2% COMMERCIAL GRADE CURCUMIN IN DIET FOR 23 WK BEGINNING 1 WK POST CARCINOGEN TREATMENT (STUDY DURATION: 30 WK), Route [Inhibitor]: ORAL, Species: MOUSE, Strain/Sex: STRAIN-A/FEMALE, Target Tissue: Type of Lesion: FORESTOMACH: PAPILLOMA, Dose [Carcinogen]: 1.5 MG IN 100 µL CORN OIL 1/WK FOR 4 WK, Promoter: NONE USED): 97%, 79%, 19%, not significant
tumour outcome (control, treated, inhibition, significance) (Carcinogen: BENZO[A]PYRENE, 50-32-8, 2% COMMERCIAL GRADE CURCUMIN IN DIET FOR 23 WK BEGINNING 1 WK POST CARCINOGEN TREATMENT (STUDY DURATION: 30 WK), Route [Inhibitor]: ORAL, Species: MOUSE, Strain/Sex: STRAIN-A/FEMALE, Target Tissue: Type of Lesion: FORESTOMACH: SQUAMOUS CELL CARCINOMA, Dose [Carcinogen]: 1.5 MG IN 100 µL CORN OIL 1/WK FOR 4 WK, Promoter: NONE USED): 41%, 14%, 66%, not significant
tumour outcome (control, treated, inhibition, significance) (Carcinogen: BENZO[A]PYRENE, 50-32-8, 3 UMOL IN ACETONE 1/WK FOR 10 WK APPLIED 5 MIN PRIOR TO EACH CARCINOGEN DOSE (STUDY DURATION: 32 WK), Route [Inhibitor]: DERMAL, Species: MOUSE, Strain/Sex: CD-1/FEMALE, Target Tissue: Type of Lesion: SKIN: TUMORS, Dose [Carcinogen]: 20 NMOL 1/WK FOR 10 WK, Promoter: 12-O-TETRADECANOYLPHORBOL-13-ACETATE, 16561-29-8): 100%, 75%, 25%, not calculated
tumour outcome (control, treated, inhibition, significance) (Carcinogen: BENZO[A]PYRENE, 50-32-8, 5% IN DIET FOR 8 WK BEGINNING 2 WK PRIOR TO CARCINOGEN TREATMENT (STUDY DURATION: 20 WK), Route [Inhibitor]: ORAL, Species: MOUSE, Strain/Sex: SWISS/FEMALE, Target Tissue: Type of Lesion: FORESTOMACH: TUMOR, Dose [Carcinogen]: 1 MG IN 0.1 ML PEANUT OIL 2/WK FOR 4 WK, Promoter: NONE USED): 20/20 (100%), 12/20 (60%), 40%, p<0.001
tumour outcome (control, treated, inhibition, significance) (Carcinogen: BENZO[A]PYRENE, 50-32-8, 10 UMOL IN ACETONE 1/WK FOR 10 WK APPLIED 5 MIN PRIOR TO EACH CARCINOGEN DOSE (STUDY DURATION: 32 WK), Route [Inhibitor]: DERMAL, Species: MOUSE, Strain/Sex: CD-1/FEMALE, Target Tissue: Type of Lesion: SKIN: TUMORS, Dose [Carcinogen]: 20 NMOL 1/WK FOR 10 WK, Promoter: 12-O-TETRADECANOYLPHORBOL-13-ACETATE, 16561-29-8): 100%, 82%, 18%, not calculated
